Measured values reported in patent publication US20100197803A1, “METHOD FOR OBTAINING A SEQUOYITOL-CONTAINING EXTRACT FROM A PLANT OF THE GENUS OF TRIFOLIUM, LEGUMINOSAE OR GINKOACEAE AND USES THEREOF” (LIANCHUANGSIYUANLI BIOLOGY AND SCIENCE AND TECHNOLOGY CO., …, priority 2007, published 2010).
Where a name gives a salt, the structure may show the parent alone.

Assays:
[1] = tested on: elevated level of blood glucose induced by Alloxan in mice; experiment: Effect on the elevated level of blood glucose induced by alloxan in mice; assay type: in vivo; conditions: 75 mg/kg for 7 days
Procedure: Animals: 100 male mice weighed 22-25 g, Positive control: Phenformin Hydrochloride (Jiangsu Yabang Pharmaceutical (group) Co., Ltd.),
20 mice were randomly selected as the blank group. Others were injected intravenously with Alloxan via caudal vein at a dose of 65 mg/kg body weight, and then modeled according to established methods. The mice were divided into 4 groups according to their level of blood glucose, in which 3 groups were administered with 60 mg/kg of the plant extract, 75 mg/kg of Phenformin Hydrochloride, or 60 mg/kg of sequoyitol-containing Taxus chinensis extract respectively for 7 days, in a volume of 0.1 ml/10 g body weight. The same volume of distilled water was administered to the blank group and the control group. Blood glucose was determined using glucose oxidase method.

[2] = sequoyitol isolated from Taxus chinensis; cited from earlier work
[3] = tested on: diabetes models; conditions: sequoyitol isolated from Taxus chinensis; cited from earlier work
[4] = Solubility in water; assay type: physicochemical
Procedure: The sequoyitol was dissolved in water and sterilized by filtration. Solutions for injection were prepared according to the preparation process of solutions for injection. Powder for injection was prepared according to the preparation process of lyophilized powder for injection.

Solubility in water [4]	SMILES	Decrease of alloxan-induced hyperglycemia in comparison to the control group [1] [mg/dL]	Toxicity [2]	Effect on breakdown of hepatic glycogen and absorption of glucose [3]	Effect on high glycemia in diabetes models [3]
	[H]/N=C(/N)N/C(=N/[H])NCCc1ccccc1 [Phenformin Hydrochloride]	155.8			
well soluble in water	CO[C@H]1[C@H](O)[C@@H](O)[C@@H](O)[C@@H](O)[C@@H]1O [Sequoyitol, sequoyitol]		very low toxicity	inhibits the breakdown of hepatic glycogen and the absorption of glucose	remarkably decreases high glycemia
